Source: ChEMBL document CHEMBL3817752, “Antimycobacterial activity of new N(1)-[1-[1-aryl-3-[4-(1H-imidazol-1-yl)phenyl]-3-oxo]propyl]-pyridine-2-carboxamidrazone derivatives” (Bioorg Med Chem Lett, 2016)
In brackets after ≈: the same amount, converted by molar mass.

System: Mycobacterium tuberculosis variant bovis
Test: Antimycobacterial activity against Mycobacterium bovis NCTC 10772 after 7 days by resazurin microtiter assay
Format: functional
Conditions: NCTC 10772, 168 h

Row | SMILES | MIC [µM]
1 | N/C(=N/NC(CC(=O)c1ccc(-n2ccnc2)cc1)c1ccc(F)cc1)c1ccccn1 (stereo not given) | 18.7 (≈ 8.01 µg/mL)
2 | N/C(=N/NC(CC(=O)c1ccc(-n2ccnc2)cc1)c1ccccc1[N+](=O)[O-])c1ccccn1 (stereo not given) | 17.6 (≈ 8.02 µg/mL)
3 | N/C(=N/NC(CC(=O)c1ccc(-n2ccnc2)cc1)c1cccc(Cl)c1)c1ccccn1 (stereo not given) | 18 (≈ 8.01 µg/mL)
4 | N/C(=N/NC(CC(=O)c1ccc(-n2ccnc2)cc1)c1ccc(Cl)cc1Cl)c1ccccn1 (stereo not given) | 9 (≈ 4.31 µg/mL)
5 | N/C(=N/NC(CC(=O)c1ccc(-n2ccnc2)cc1)c1cccc([N+](=O)[O-])c1)c1ccccn1 (stereo not given) | 17.6 (≈ 8.02 µg/mL)
6 | N/C(=N/NC(CC(=O)c1ccc(-n2ccnc2)cc1)c1ccc([N+](=O)[O-])cc1)c1ccccn1 (stereo not given) | 35.1 (≈ 16 µg/mL)
7 | N/C(=N/NC(CC(=O)c1ccc(-n2ccnc2)cc1)c1cccc(F)c1)c1ccccn1 (stereo not given) | 18.7 (≈ 8.01 µg/mL)
8 | N/C(=N/NC(CC(=O)c1ccc(-n2ccnc2)cc1)c1ccccc1Cl)c1ccccn1 (stereo not given) | 18 (≈ 8.01 µg/mL)
9 | N/C(=N/NC(CC(=O)c1ccc(-n2ccnc2)cc1)c1ccc(Cl)cc1)c1ccccn1 (stereo not given) | 18 (≈ 8.01 µg/mL)
10 | N/C(=N/NC(CC(=O)c1ccc(-n2ccnc2)cc1)c1ccccc1F)c1ccccn1 (stereo not given) | 18.7 (≈ 8.01 µg/mL)
11 | N/C(=N/NC(CC(=O)c1ccc(-n2ccnc2)cc1)c1cccc(Br)c1)c1ccccn1 (stereo not given) | 16.3 (≈ 7.98 µg/mL)
12 | N/C(=N/NC(CC(=O)c1ccc(-n2ccnc2)cc1)c1ccccc1)c1ccccn1 (stereo not given) | 39 (≈ 16 µg/mL)
13 | NNC(=O)c1ccncc1 [ISONIAZID] | 7.3 (≈ 1 µg/mL)
14 | N/C(=N/NC(CC(=O)c1ccc(-n2ccnc2)cc1)c1ccccc1Br)c1ccccn1 (stereo not given) | 32.7 (≈ 16 µg/mL)
15 | N/C(=N/NC(CC(=O)c1ccc(-n2ccnc2)cc1)c1ccc(Br)cc1)c1ccccn1 (stereo not given) | 8.2 (≈ 4.01 µg/mL)
